Test results as given in patent US12116368B2, “Pyrrolo[2,3-d]pyrimidine tosylate salt, crystalline form thereof and manufacturing process and intermediates thereto” (Pfizer Inc., priority 2018, dated 2024).
Several values for one entry are separate records, joined by “and”; a condition that tells them apart may be missing. Equal entries are not always repeated.

Assay: Solid state stability under accelerated stability conditions (70° C./75% RH, one week), monitoring purity
Assay type: physicochemical
Settings: for Initial Purity: API purity before the accelerated stability stress test; for Final Purity (post stress test): after one week at 70° C./75% RH, solid state; for Recommended storage condition for use as an API: assigned from the accelerated stability result; for Solid state stability compared with amorphous free base and malonate salt: accelerated stability conditions 70° C./75% RH, one week
Experimental: The solid state stability is monitored using accelerated stability conditions (70° C./75% RH) for one week and then monitoring appearance, purity and form change. These accelerated conditions are used to assign an initial use period for the API.

| Compound | Initial Purity | Final Purity (post stress test) | Initial Purity (listed as malonate salt) [%] | Final Purity (post stress test) (listed as malonate salt) [%] | Recommended storage condition for use as an API | Solid state stability compared with amorphous free base and malonate salt |
| --- | --- | --- | --- | --- | --- | --- |
| C=CC(=O)N1C[C@H](Nc2ncnc3[nH]ccc23)CC[C@@H]1C [Amorphous Free base, 1-((2S,5R)-5-((7H-Pyrrolo[2,3-d]pyrimidin-4-yl)amino)-2-methylpiperidin-1-yl)prop-2-en-1-one] | 99.3% | 41.3& % | – | – | – | – |
| C=CC(=O)N1C[C@H](Nc2ncnc3[nH]ccc23)CC[C@@H]1C.O=C(O)CC(=O)O [Malonate salt, 1-((2S,5R)-5-((7H-Pyrrolo[2,3-d]pyrimidin-4-yl)amino)-2-methyl-piperidin-1-yl)prop-2-en-1-one Malonic Acid Salt (Form 1)] | 99.5% | 81.6% | 99.5 | 81.6 | would require refrigeration | – |
| C=CC(=O)N1C[C@H](Nc2ncnc3[nH]ccc23)CC[C@@H]1C.O=P(O)(O)O [Phosphate salt, 1-((2S,5R)-5-((7H-Pyrrolo[2,3-d]pyrimidin-4-yl)amino)-2-meth-ylpiperidin-1-yl)prop-2-en-1-one Phosphoric Acid Salt (Form A)] | 99.6% | 99.5% | – | – | – | significantly improved |
| C=CC(=O)N1C[C@H](Nc2ncnc3[nH]ccc23)CC[C@@H]1C.Cc1ccc(S(=O)(=O)O)cc1 [Tosylate salt, 1-((2S,5R)-5-((7H-Pyrrolo[2,3-d]pyrimidin-4-yl)amino)-2-meth-ylpiperidin-1-yl)prop-2-en-1-one p-Toluenesulfonic Acid Salt (Form 1)] | 99.1% and 99.6% | 97.7% and 99.6% | – | – | would not require refrigerated storage conditions | significantly improved |
